Source: publication PMC11238352, “Combination of dual JAK/HDAC inhibitor with regorafenib synergistically reduces tumor growth, metastasis, and regorafenib-induced toxicity in colorectal cancer” (Journal of Experimental & Clinical Cancer Research : CR, 2024)

What was measured:
Test in all cases: PamStation PTK kinomic profiling
Format in all cases: cell-based
FAK2 = molecular target: T1, FAK2 (Homo sapiens, UniProt Q14289); settings: SW480, 45 min, change from DMSO control
T1 construct: cell lysates were prepared; endogenous in cells; host or cells: SW480 and RKO
Protocol: (§1) SW480 and RKO cells were treated with vehicle (DMSO), JAK/HDACi, regorafenib, and their combination for 45 min, and cell lysates were prepared. Tyrosine kinase (PTK) activity (kinomic) profiling was performed using the PamStation®12 platform (PamGene, BV, The Netherlands). As per standard kinomic protocol as described previously. Whole-chip comparative analysis (BioNavigator Upkin PTK v8.0) was performed between groups generating Mean Kinase Statistics (direction of change).

FGFR1 = settings: change from DMSO control
Protocol: as §1

FGFR2 = molecular target: T2, FGFR2 (Homo sapiens, UniProt P21802); settings: change from DMSO control
T2 construct: cell lysates were prepared; endogenous in cells; host or cells: SW480 and RKO
T2 sequence (P21802 22-821): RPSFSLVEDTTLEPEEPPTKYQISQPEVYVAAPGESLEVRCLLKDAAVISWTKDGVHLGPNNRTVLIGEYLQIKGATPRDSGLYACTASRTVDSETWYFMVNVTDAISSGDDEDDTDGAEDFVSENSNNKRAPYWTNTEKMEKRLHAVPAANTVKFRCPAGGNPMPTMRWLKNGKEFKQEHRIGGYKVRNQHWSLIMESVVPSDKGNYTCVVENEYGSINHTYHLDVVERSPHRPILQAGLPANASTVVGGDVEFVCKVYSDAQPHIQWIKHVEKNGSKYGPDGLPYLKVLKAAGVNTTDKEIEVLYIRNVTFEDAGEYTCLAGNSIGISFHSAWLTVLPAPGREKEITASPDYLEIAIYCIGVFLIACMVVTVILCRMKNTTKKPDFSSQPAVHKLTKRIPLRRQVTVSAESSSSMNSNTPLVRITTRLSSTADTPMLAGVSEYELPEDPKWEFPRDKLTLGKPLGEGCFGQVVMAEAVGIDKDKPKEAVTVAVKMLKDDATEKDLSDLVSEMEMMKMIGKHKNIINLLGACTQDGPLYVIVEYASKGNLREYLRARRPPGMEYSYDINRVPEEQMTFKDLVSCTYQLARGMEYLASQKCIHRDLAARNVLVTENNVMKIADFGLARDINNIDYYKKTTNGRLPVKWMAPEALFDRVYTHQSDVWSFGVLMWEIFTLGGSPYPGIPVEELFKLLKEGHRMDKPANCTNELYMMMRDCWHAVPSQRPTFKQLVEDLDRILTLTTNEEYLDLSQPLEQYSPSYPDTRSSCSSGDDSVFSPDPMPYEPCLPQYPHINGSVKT
Protocol: as §1

FGFR3 = molecular target: T3, FGFR3 (Homo sapiens, UniProt P22607); settings: change from DMSO control
T3 construct: cell lysates were prepared; endogenous in cells; host or cells: SW480 and RKO
T3 sequence (P22607 23-806): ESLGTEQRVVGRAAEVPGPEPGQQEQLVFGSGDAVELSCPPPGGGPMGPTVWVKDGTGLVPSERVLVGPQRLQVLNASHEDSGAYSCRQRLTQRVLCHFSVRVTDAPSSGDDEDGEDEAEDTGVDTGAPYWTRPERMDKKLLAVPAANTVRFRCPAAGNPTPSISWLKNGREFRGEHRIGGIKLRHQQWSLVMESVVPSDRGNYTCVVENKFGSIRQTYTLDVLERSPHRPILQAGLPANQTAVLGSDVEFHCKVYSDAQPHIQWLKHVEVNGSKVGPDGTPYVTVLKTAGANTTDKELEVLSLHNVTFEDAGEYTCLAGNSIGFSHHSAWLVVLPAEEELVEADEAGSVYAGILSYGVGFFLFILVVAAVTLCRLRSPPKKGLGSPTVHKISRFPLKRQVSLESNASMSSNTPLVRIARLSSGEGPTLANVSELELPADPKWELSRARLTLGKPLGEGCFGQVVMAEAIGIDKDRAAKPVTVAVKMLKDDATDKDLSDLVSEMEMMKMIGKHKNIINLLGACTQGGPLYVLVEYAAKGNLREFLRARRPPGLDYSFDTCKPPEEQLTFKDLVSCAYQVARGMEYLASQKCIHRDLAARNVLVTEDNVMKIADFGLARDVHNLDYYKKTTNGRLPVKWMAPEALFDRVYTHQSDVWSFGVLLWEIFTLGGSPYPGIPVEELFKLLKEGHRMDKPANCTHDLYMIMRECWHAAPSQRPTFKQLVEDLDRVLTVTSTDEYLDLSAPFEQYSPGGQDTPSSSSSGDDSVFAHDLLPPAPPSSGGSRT
Protocol: as §1

FGFR4 = molecular target: T4, FGFR4 (Homo sapiens, UniProt P22455); settings: change from DMSO control
T4 construct: cell lysates were prepared; endogenous in cells; host or cells: SW480 and RKO
Protocol: as §1

FLT1 = molecular target: T5, FLT1 (Homo sapiens, UniProt P17948); settings: change from DMSO control
T5 construct: endogenous in cells; host or cells: SW480 and RKO
Protocol: as §1

FLT3 = molecular target: T6, FLT3 (Homo sapiens, UniProt P36888); settings: change from DMSO control
T6 construct: we conducted kinome analysis on lysates of SW480 and RKO cells; endogenous in cells; host or cells: SW480 and RKO cells
T6 sequence (P36888 27-993): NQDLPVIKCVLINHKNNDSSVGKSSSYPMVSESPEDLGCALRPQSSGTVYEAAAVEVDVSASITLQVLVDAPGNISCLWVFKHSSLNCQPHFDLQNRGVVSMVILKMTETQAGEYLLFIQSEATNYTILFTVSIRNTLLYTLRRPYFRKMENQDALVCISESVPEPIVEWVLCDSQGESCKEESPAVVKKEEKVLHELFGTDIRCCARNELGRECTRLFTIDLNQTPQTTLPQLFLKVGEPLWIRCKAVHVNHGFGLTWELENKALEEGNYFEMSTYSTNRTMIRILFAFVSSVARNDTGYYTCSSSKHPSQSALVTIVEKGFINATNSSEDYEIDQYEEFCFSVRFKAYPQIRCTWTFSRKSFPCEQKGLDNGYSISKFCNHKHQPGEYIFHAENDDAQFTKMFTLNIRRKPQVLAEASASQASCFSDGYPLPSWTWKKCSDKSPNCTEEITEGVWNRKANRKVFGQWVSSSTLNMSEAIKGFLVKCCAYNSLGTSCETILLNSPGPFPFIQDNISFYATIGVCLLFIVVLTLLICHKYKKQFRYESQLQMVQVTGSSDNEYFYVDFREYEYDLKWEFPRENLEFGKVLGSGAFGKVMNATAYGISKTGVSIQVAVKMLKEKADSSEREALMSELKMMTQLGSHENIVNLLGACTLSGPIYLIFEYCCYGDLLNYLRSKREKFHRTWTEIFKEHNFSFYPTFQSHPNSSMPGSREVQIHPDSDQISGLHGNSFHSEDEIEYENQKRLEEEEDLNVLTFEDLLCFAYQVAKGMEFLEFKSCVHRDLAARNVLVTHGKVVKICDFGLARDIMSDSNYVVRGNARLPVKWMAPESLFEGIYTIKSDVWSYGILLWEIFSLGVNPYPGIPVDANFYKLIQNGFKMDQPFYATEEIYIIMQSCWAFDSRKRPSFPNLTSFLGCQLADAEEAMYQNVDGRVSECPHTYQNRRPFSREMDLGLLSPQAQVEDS
Protocol: as §1

FLT4 = molecular target: T7, FLT4 (Homo sapiens, UniProt P35916); settings: change from DMSO control
T7 construct: cell lysates were prepared; endogenous in cells; host or cells: SW480 and RKO
Protocol: as §1

Fgr = molecular target: T8, Fgr (Homo sapiens, UniProt P09769); settings: change from DMSO control
T8 construct: we conducted kinome analysis on lysates of SW480 and RKO cells; endogenous in cells; host or cells: SW480 and RKO cells
T8 sequence (P09769 whole entry): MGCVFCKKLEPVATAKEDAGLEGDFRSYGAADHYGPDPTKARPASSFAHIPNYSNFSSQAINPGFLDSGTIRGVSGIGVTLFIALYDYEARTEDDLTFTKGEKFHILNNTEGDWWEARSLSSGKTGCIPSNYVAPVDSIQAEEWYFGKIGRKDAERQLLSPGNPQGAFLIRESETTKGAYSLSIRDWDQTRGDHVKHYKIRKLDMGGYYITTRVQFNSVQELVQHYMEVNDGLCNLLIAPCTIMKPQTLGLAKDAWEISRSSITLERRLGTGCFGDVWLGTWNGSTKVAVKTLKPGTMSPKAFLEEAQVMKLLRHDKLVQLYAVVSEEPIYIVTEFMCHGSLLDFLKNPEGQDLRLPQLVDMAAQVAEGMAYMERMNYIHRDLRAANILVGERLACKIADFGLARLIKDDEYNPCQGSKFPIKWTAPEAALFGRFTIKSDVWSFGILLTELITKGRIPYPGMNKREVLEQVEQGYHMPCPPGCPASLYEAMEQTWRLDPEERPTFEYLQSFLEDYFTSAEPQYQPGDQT
Protocol: as §1

HER2 = molecular target: T9, HER2 (Homo sapiens, UniProt P04626); settings: change from DMSO control
T9 construct: cell lysates were prepared; endogenous in cells; host or cells: SW480 and RKO
Protocol: as §1

HER3 = molecular target: T10, HER3 (Homo sapiens, UniProt P21860); settings: change from DMSO control
T10 construct: cell lysates were prepared; endogenous in cells; host or cells: SW480 and RKO
Protocol: as §1

HER4 = molecular target: T11, HER4 (Homo sapiens, UniProt Q15303); settings: change from DMSO control
T11 construct: we conducted kinome analysis on lysates of SW480 and RKO cells; endogenous in cells; host or cells: SW480 and RKO cells
T11 sequence (Q15303 26-1308): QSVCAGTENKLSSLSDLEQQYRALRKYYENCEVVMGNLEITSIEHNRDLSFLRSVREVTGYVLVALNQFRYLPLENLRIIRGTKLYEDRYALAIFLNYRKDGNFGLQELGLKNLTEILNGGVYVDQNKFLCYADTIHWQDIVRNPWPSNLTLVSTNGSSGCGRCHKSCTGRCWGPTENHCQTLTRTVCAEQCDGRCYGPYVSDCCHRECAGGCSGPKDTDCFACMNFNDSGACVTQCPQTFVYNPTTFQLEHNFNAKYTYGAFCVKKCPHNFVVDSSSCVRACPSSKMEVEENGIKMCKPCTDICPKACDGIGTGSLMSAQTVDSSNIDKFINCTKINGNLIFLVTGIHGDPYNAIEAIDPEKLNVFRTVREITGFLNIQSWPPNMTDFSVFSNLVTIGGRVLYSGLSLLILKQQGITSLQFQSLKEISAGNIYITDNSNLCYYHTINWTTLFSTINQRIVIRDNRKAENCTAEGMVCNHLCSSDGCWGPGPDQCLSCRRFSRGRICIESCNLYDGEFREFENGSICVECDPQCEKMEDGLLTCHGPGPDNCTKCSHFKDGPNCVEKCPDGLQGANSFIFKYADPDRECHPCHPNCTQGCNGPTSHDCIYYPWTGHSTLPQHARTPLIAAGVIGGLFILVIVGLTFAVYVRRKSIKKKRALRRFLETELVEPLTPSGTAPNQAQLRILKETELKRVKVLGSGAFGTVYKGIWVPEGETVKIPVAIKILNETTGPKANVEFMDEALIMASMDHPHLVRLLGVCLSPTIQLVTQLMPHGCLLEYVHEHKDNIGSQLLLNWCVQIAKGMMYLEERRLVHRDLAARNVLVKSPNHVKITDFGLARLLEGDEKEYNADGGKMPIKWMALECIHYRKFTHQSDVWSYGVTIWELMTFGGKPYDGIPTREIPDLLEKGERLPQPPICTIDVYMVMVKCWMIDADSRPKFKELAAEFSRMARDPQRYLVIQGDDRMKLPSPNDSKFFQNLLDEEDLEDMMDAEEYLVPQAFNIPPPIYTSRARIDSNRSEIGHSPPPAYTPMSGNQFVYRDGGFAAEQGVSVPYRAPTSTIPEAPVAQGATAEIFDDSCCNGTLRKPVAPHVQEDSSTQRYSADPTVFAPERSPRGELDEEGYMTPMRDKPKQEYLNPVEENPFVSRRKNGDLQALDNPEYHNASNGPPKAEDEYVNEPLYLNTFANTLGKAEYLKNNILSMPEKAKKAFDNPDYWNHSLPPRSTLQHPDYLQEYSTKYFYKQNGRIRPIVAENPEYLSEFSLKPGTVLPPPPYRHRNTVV
Protocol: as §1

IGF1R = molecular target: T12, IGF1R (Homo sapiens, UniProt P08069); settings: change from DMSO control
T12 construct: cell lysates were prepared; endogenous in cells; host or cells: SW480 and RKO
Protocol: as §1

JAK1~b = molecular target: T13, JAK1~b (Homo sapiens, UniProt P23458); settings: change from DMSO control
T13 construct: cell lysates were prepared; endogenous in cells; host or cells: SW480 and RKO
Protocol: as §1

JAK2 = molecular target: T14, JAK2 (Homo sapiens, UniProt O60674); settings: change from DMSO control
T14 construct: cell lysates were prepared; endogenous in cells; host or cells: SW480 and RKO
Protocol: as §1

PDGFR[alpha] = molecular target: T15, PDGFR[alpha] (Homo sapiens, UniProt P16234); settings: change from DMSO control
T15 construct: cell lysates were prepared; endogenous in cells; host or cells: SW480 and RKO
Protocol: as §1

PDGFR[beta] = molecular target: T16, PDGFR[beta] (Homo sapiens, UniProt P09619); settings: change from DMSO control
T16 construct: cell lysates were prepared; endogenous in cells; host or cells: SW480 and RKO
Protocol: as §1

Src = molecular target: T17, Src (Homo sapiens, UniProt P12931); settings: change from DMSO control
T17 construct: cell lysates were prepared; endogenous in cells; host or cells: SW480 and RKO
T17 sequence (P12931 whole entry): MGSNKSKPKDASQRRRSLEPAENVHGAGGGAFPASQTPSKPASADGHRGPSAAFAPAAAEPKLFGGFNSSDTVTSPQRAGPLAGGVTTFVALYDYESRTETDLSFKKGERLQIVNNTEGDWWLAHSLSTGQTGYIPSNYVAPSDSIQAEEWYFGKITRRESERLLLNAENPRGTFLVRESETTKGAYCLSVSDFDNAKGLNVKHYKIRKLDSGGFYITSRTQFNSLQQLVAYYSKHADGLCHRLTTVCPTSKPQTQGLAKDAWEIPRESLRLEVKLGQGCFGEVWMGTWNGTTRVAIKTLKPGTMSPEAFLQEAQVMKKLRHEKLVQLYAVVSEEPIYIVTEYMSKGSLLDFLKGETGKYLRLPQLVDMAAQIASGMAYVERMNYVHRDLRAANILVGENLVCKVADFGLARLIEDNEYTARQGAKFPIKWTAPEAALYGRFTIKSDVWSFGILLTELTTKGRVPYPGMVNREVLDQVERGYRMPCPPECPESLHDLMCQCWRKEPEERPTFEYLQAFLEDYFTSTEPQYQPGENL
Protocol: as §1

With `CNC(=O)c1cc(Oc2ccc(NC(=O)Nc3ccc(Cl)c(C(F)(F)F)c3)c(F)c2)ccn1` [regorafenib] the “Mean Kinase Statistic, FAK2” value (FAK2) was -0.181, the “Mean Kinase Statistic, FGFR1” value (FGFR1; RKO, 45 min) was 0.199 and the “Mean Kinase Statistic, FGFR1” value (FGFR1; SW480, 45 min) was -0.180. For the same compound, the “Mean Kinase Statistic, FGFR2” value (FGFR2; RKO, 45 min) was 0.180, the “Mean Kinase Statistic, FGFR2” value (FGFR2; SW480, 45 min) was -0.279 and the “Mean Kinase Statistic, FGFR3” value (FGFR3; RKO, 45 min) was 0.194. For the same compound, the “Mean Kinase Statistic, FGFR3” value (FGFR3; SW480, 45 min) was -0.292, the “Mean Kinase Statistic, FGFR4” value (FGFR4; RKO, 45 min) was 0.215 and the “Mean Kinase Statistic, FGFR4” value (FGFR4; SW480, 45 min) was -0.166. For the same compound, the “Mean Kinase Statistic, FLT1” value (FLT1; RKO, 45 min) was 0.207, the “Mean Kinase Statistic, FLT1” value (FLT1; SW480, 45 min) was -0.166 and the “Mean Kinase Statistic, FLT3” value (FLT3; RKO, 45 min) was 0.133. For the same compound, the “Mean Kinase Statistic, FLT3” value (FLT3; SW480, 45 min) was -0.243, the “Mean Kinase Statistic, FLT4” value (FLT4; RKO, 45 min) was 0.133 and the “Mean Kinase Statistic, FLT4” value (FLT4; SW480, 45 min) was -0.234. The “Mean Kinase Statistic, Fgr” value (Fgr; RKO, 45 min) was -0.272, the “Mean Kinase Statistic, Fgr” value (Fgr; SW480, 45 min) was -0.185 and the “Mean Kinase Statistic, HER2” value (HER2; RKO, 45 min) was 0.090. For the same compound, the “Mean Kinase Statistic, HER2” value (HER2; SW480, 45 min) was -0.225, the “Mean Kinase Statistic, HER3” value (HER3; RKO, 45 min) was 0.047 and the “Mean Kinase Statistic, HER3” value (HER3; SW480, 45 min) was -0.158. For the same compound, the “Mean Kinase Statistic, HER4” value (HER4; RKO, 45 min) was 0.025, the “Mean Kinase Statistic, HER4” value (HER4; SW480, 45 min) was -0.223 and the “Mean Kinase Statistic, IGF1R” value (IGF1R; RKO, 45 min) was -0.129. For the same compound, the “Mean Kinase Statistic, IGF1R” value (IGF1R; SW480, 45 min) was -0.222, the “Mean Kinase Statistic, JAK1~b” value (JAK1~b; RKO, 45 min) was 0.393 and the “Mean Kinase Statistic, JAK1~b” value (JAK1~b; SW480, 45 min) was -0.185. For the same compound, the “Mean Kinase Statistic, JAK2” value (JAK2; RKO, 45 min) was 0.236, the “Mean Kinase Statistic, JAK2” value (JAK2; SW480, 45 min) was -0.116 and the “Mean Kinase Statistic, PDGFR[alpha]” value (PDGFR[alpha]; RKO, 45 min) was 0.135. For the same compound, the “Mean Kinase Statistic, PDGFR[alpha]” value (PDGFR[alpha]; SW480, 45 min) was -0.175, the “Mean Kinase Statistic, PDGFR[beta]” value (PDGFR[beta]; RKO, 45 min) was 0.140 and the “Mean Kinase Statistic, PDGFR[beta]” value (PDGFR[beta]; SW480, 45 min) was -0.203. For the same compound, the “Mean Kinase Statistic, Src” value (Src; RKO, 45 min) was -0.068 and the “Mean Kinase Statistic, Src” value (Src; SW480, 45 min) was -0.128.
